Source: ChEMBL document CHEMBL5523681, “Lysosome-targeted Aza-BODIPY photosensitizers for anti-cancer photodynamic therapy” (Bioorg Med Chem, 2024)
Active and inactive are the calls of the source. The calls are words filed in the database; no cut-off is given here.

Key:
[1] = Ratio of singlet oxygen quantum yield in DMF at pH 5.2 in presence of HCl to singlet oxygen quantum yield in DMF at pH 7; assay type: functional
[2] = Photosensitizing ability of the compound in DMF at pH 7 assessed as singlet oxygen quantum yield; assay type: functional
[3] = Toxicity in female BALB/c nude mouse xenografted with human HeLa cells assessed as decrease in body weight at 2 mg/kg, iv preadministered with compound for 3 hrs followed by 54 J/cm2 light irradiation and measured after 24 days; assay type: organism-based; details: in vivo, 576 h, time 24 day
[4] = Photosensitizing ability of the compound in PBS at pH 5.2 in presence of HCl assessed as singlet oxygen production by measuring relative degradation rate of DPBF at 411 nm under photoirradiation with 90 mW/cm2 light by absorbance based assay; assay type: functional
HeLa [5] = assay: Antitumor activity against human HeLa cells xenografted in female BALB/c nude mouse assessed as inhibition of tumor growth at 2 mg/kg, iv preadministered with compound for 3 hrs followed by 54 J/cm2 light irradiation and measured after 24 days; assay type: functional, organism-based; details: time 24.0 day
[6] = Photosensitizing ability of the compound in DMF at pH 5.2 assessed as singlet oxygen quantum yield in presence of HCl; assay type: functional
[7] = Drug localization in mitochondria of human HeLa cells at 5 uM incubated for 2 hrs by Mito-tracker green dye based confocal scanning microscopic analysis; assay type: ADME
[8] = Photosensitizing ability of the compound in PBS at pH 7.4 assessed as singlet oxygen production by measuring relative degradation rate of DPBF at 411 nm under photoirradiation with 90 mW/cm2 light by absorbance based assay; assay type: functional
HepG2 = assay: Cytotoxicity against human HepG2 cells preincubated with compound for 3 hrs followed by 81 J/cm2 light irradiation and measured after 24 hrs by CCK8 assay; assay type: functional, cell-based; details: HepG2, light or radiation study
[9] = Ratio of relative degradation rate of DPBF in PBS at pH 5.2 in presence of HCl to relative degradation rate of DPBF in PBS at pH 7; assay type: physicochemical; details: buffer
[10] = Dark toxicity in human HeLa cells incubated for 3 hrs by CCK-8 assay; assay type: cell-based
[11] = Dark toxicity in human HepG2 cells incubated for 3 hrs by CCK-8 assay; assay type: cell-based
B16-F10 = assay: Cytotoxicity against mouse B16-F10 cells preincubated with compound for 3 hrs followed by 81 J/cm2 light irradiation and measured after 24 hrs by CCK8 assay; assay type: functional, cell-based; details: B16-F10, light or radiation study
HeLa [12] = assay: Cytotoxicity against human HeLa cells preincubated with compound for 3 hrs followed by 81 J/cm2 light irradiation and measured after 24 hrs by CCK8 assay; assay type: functional, cell-based; details: light or radiation study
[13] = Drug localization in endoplasmic reticulum of human HeLa cells at 5 uM incubated for 2 hrs by ER-Tracker blue dye based confocal scanning microscopic analysis; assay type: ADME, subcellular
[14] = Dark toxicity in mouse B16-F10 cells incubated for 3 hrs by CCK-8 assay; assay type: cell-based
[15] = Photostability of compound in emulsified PBS buffer in presence of […] light irradiation measured upto 10 mins by absorption based assay; assay type: physicochemical
[16] = Stability of compound in DMF under dark condition; assay type: physicochemical
MRC5 = assay: Cytotoxicity against human MRC5 cells in presence of 16 J/cm^2 light irradiation; assay type: functional, cell-based; details: MRC5, light or radiation study
[17] = Stability of compound in emulsified PBS buffer under dark condition; assay type: physicochemical
[18] = Stability of compound in CH3CN under dark condition; assay type: physicochemical
[19] = Fluorescence property of compound assessed as quantum yield in CHCl3 by spectroscopic analysis; assay type: physicochemical
[20] = Toxicity in female BALB/c nude mouse xenografted with human HeLa cells assessed as decrease in body weight at 2 mg/kg, iv preadministered with compound for 3 hrs followed by 54 J/cm2 light irradiation and measured after 10 days; assay type: organism-based; details: in vivo, 240 h, time 10 day
[21] = Fluorescence property of compound assessed as quantum yield; assay type: physicochemical
[22] = Drug uptake in female BALB/c nude mouse xenografted with human HeLa cells at 2 mg/kg, iv measured after 3 hrs by fluorescence imaging analysis; assay type: ADME, organism-based; details: in vivo
[23] = Drug uptake in human HeLa cells assessed as increase in fluorescence intensity at 5 uM by confocal scanning microscopic analysis; assay type: ADME, cell-based; details: 5 h, TDE = time-dependent effect
HeLa [24] = assay: Antitumor activity against human HeLa cells xenografted in female BALB/c nude mouse assessed as reduction in tumor size at 2 mg/kg, iv preadministered with compound for 3 hrs followed by 54 J/cm2 light irradiation and measured after 24 days relative to control; assay type: functional; set-up: scale not given: the % may be the effect or the level left; details: time 24 day
[25] = Drug localization in mitochondria of human HeLa cells at 5 uM incubated for 3 hrs by Mito-tracker green dye based confocal scanning microscopic analysis; assay type: ADME
[26] = Drug uptake in spleen of female BALB/c nude mouse xenografted with human HeLa cells at 2 mg/kg, iv measured after 3 hrs by fluorescence imaging analysis; assay type: ADME, organism-based; details: in vivo
[27] = Drug localization in lysosome of human HeLa cells at 5 uM incubated for 3 hrs by Lyso-tracker blue dye based confocal scanning microscopic analysis; assay type: ADME, subcellular
[28] = Drug uptake in mouse B16-F10 cells measured after 4 hrs by confocal scanning microscopic analysis; assay type: ADME, cell-based; details: b16-f10, 4 h
[29] = Drug uptake in liver of female BALB/c nude mouse xenografted with human HeLa cells at 2 mg/kg, iv measured after 3 hrs by fluorescence imaging analysis; assay type: ADME, organism-based; details: in vivo
[30] = Drug localization in endoplasmic reticulum of human HeLa cells at 5 uM incubated for 3 hrs by ER-Tracker blue dye based confocal scanning microscopic analysis; assay type: ADME, subcellular
HeLa [31] = assay: Induction of ROS production in human HeLa cells assessed as increase in fluorescence intensity at 20 to 500 nM incubated for 3 hrs in presence of 81 J/cm2 light irradiation by confocal scanning microscopic analysis; assay type: functional, cell-based; details: dose 20-500 nM
[32] = Drug uptake in lung of female BALB/c nude mouse xenografted with human HeLa cells at 2 mg/kg, iv measured after 3 hrs by fluorescence imaging analysis; assay type: ADME, organism-based; details: in vivo

| Compound | Ratio [1] | Activity [2] | Activity [4] | Activity (HeLa [5]) | Activity [6] | Activity [8] | IC50 (HepG2) [nM] | Ratio [9] | IC50 at 3 h [10] [µM] | IC50 at 3 h [11] [µM] | IC50 (B16-F10) [nM] | IC50 (HeLa [12]) [nM] | IC50 at 3 h [14] [µM] | Stability [15] | Stability [16] | Stability [17] | Stability [18] | other results |
| --- | --- | --- | --- | --- | --- | --- | --- | --- | --- | --- | --- | --- | --- | --- | --- | --- | --- | --- |
| COc1ccc(C2=[N+]3C(=Nc4c(-c5ccccc5)cc(-c5ccc(OC)cc5)n4[B-]3(F)F)C(c3ccccc3)=C2I)cc1 | 0.98 | 0.52 | 1.19 | Active | 0.51 | 1.18 | 38.6 | 1.01 | > 50 | > 50 | 155 | 26.7 | > 50 | Stable | – | – | – | Activity [3]: Non-Toxic; Drug uptake [7]: Not Active; Drug uptake [13]: Not Active |
| CCN(CC)Cc1ccc(C2=C(Br)C(c3ccc(OC)cc3)=[N+]3C2=Nc2c(-c4ccc(CN(CC)CC)cc4)c(Br)c(-c4ccc(OC)cc4)n2[B-]3(F)F)cc1 | 2.6 | 0.25 | 1.15 | – | 0.65 | 1.06 | 70.6 | 1.08 | 22 | 23.5 | 20.8 | 44.9 | 33.1 | Unstable | Unstable | Unstable | Unstable | EC50 (MRC5): 5.8 nM |
| CCN(CC)Cc1ccc(C2=C(I)C(c3ccc(OC)cc3)=[N+]3C2=Nc2c(-c4ccc(CN(CC)CC)cc4)c(I)c(-c4ccc(OC)cc4)n2[B-]3(F)F)cc1 | 1.23 | 0.61 | 1.09 | – | 0.75 | 0.91 | 73.5 | 1.2 | 26.1 | 28.9 | 73.5 | 51.1 | 49.6 | Unstable | Unstable | Unstable | Unstable | – |
| COc1ccc(C2=N/C(=N\c3[nH]c(-c4ccc(OC)cc4)cc3-c3ccccc3)C(c3ccccc3)=C2)cc1 | – | – | – | – | – | – | – | – | – | – | – | – | – | – | – | – | – | Activity [19]: 0.36 |
| CCN(CC)Cc1ccc(C2=C(I)C(c3ccc(OC)cc3)=[N+]3C2=Nc2c(-c4ccccc4)c4c(n2[B-]3(F)F)-c2ccc(OC)cc2CC4)cc1 | 1.16 | 0.44 | 1.21 | – | 0.51 | 0.84 | 14.1 | 1.44 | > 50 | > 50 | 15 | 6.7 | > 50 | Stable | Stable | Stable | Stable | – |
| C=Cc1c(C)c2cc3nc(c(CC(=O)O)c4[nH]c(cc5nc(cc1[nH]2)C(C)=C5CC)c(C)c4C(=O)O)[C@@H](CCC(=O)O)[C@@H]3C [CHLORIN E6] | – | – | – | Active | – | – | – | – | – | – | – | – | – | – | – | – | – | Activity [20]: Toxic |
| CCN(CC)Cc1ccc(C2=C(I)C(c3ccc(OC)cc3)=[N+]3C2=Nc2c(-c4ccccc4)c(I)c(-c4ccc(OC)cc4)n2[B-]3(F)F)cc1 | 1.28 | 0.58 | 0.98 | – | 0.74 | 0.87 | 132 | 1.13 | > 50 | 49.4 | 78.6 | 60.8 | 49.9 | Unstable | Unstable | Unstable | Unstable | – |
| CCN(CC)Cc1ccc(C2=C(I)C(c3ccc(OC)cc3)=[N+]3C2=Nc2c(-c4ccc(CN(CC)CC)cc4)cc(-c4ccc(OC)cc4)n2[B-]3(F)F)cc1 | 1.48 | 0.44 | 1.45 | Active | 0.65 | 1.07 | 15.1 | 1.36 | > 50 | > 50 | 7.9 | 5.3 | > 50 | Stable | Stable | Stable | Stable | Activity [21]: 0.05; Drug uptake [22]: Active; Drug uptake [23]: Tde; Activity [3]: Non-Toxic; Activity (HeLa [24]): 60%; Drug uptake [25]: Not Active; Drug uptake [26]: Active; Drug uptake [27]: Active; Drug uptake [28]: Active; Drug uptake [29]: Active; Drug uptake [30]: Not Active; Activity (HeLa [31]): Active; Drug uptake [32]: Active |
